Experimental data published in patent publication US20150105252A1, “SUBSTITUTED PYRAZOLES AS HERBICIDES” (E I DU PONT DE NEMOURS AND COMPANY, priority 2013, published 2015).

How the values were obtained:
Assay in all cases: Test F preemergence
velvetleaf = format: in vivo, Abutilon theophrasti
From the text: (§1) Seeds of plant species selected from corn (Zea mays), soybean (Glycine max), velvetleaf (Abutilon theophrasti), lambsquarters (Chenopodium album), wild poinsettia (Euphorbia heterophylla), pigweed, palmer (palmer pigweed, Amaranthus palmeri), common waterhemp (Amaranthus rudis), surinam grass (Brachiaria decumbens), large crabgrass (Digitaria sanguinalis), crabgrass, Brazil (Brazilian crabgrass, Digitaria horizontalis), fall panicum (Panicum dichotomiflorum), giant foxtail (Setaria faberii), green foxtail (Setaria viridis), goosegrass (Eleusine indica), johnsongrass (Sorghum halepense), common ragweed (Ambrosia elation), barnyardgrass (Echinochloa crus-galli), southern sandbur (Cenchrus echinatus), arrowleaf sida (Sida rhombifolia), Italian ryegrass (Lolium multiflorum), dayflower, VA (Virginia (VA) dayflower, Commelina virginica), field bindweed (Convolvulus arvensis), cocklebur (common cocklebur, Xanthium strumarium), morningglory (Ipomoea coccinea), nightshade (eastern black nightshade, Solanum ptycanthum), kochia (Kochia scoparia), yellow nutsedge (Cyperus esculentus), and hairy beggarticks (Bidens pilosa), were planted into a silt loam soil and treated preemergence with test chemicals formulated in a non-phytotoxic solvent mixture which included a surfactant.
(§2) At the same time, plants from these crop and weed species and also horseweed (Canada horseweed, Conyza canadensis), smartweed (ladysthumb smartweed, Polygonum persicaria), waterhemp_RES1, (ALS & Triazine resistant common waterhemp, Amaranthus rudis), and waterhemp_RES2, (ALS & HPPD resistant common waterhemp, Amaranthus rudis) were treated with postemergence applications of test chemicals formulated in the same manner. Plants ranged in height from 2 to 18 cm for postemergence treatments (1- to 4-leaf stage). Treated plants and controls were maintained in a greenhouse for 14 to 21 days, after which time all species were compared to controls and visually evaluated. Plant response ratings, summarized in Table F, are based on a scale of 0 to 100 where 0 is no effect and 100 is complete control. A dash (-) response means no test result.

morningglory = format: in vivo, Ipomoea coccinea
From the text: as §1, §2

nightshade = format: in vivo, Solanum ptycanthum
From the text: as §1, §2

yellow nutsedge = format: in vivo, Cyperus esculentus
From the text: as §1, §2

[1] = Preemergence, 31 g ai/ha, scale 0 to 100
[2] = Preemergence, 62 g ai/ha, scale 0 to 100
[3] = Preemergence, 125 g ai/ha, scale 0 to 100
[4] = preemergence, 8 g ai/ha, scale 0 to 100, 100 is complete control
[5] = preemergence, 16 g ai/ha, scale 0 to 100, 100 is complete control
[6] = preemergence, scale 0 to 100, 100 is complete control
[7] = Preemergence, 16 g ai/ha, scale 0 to 100
[8] = Preemergence, 250 g ai/ha, scale 0 to 100

Row | Compound | Plant response rating, Velvetleaf (velvetleaf; [1]) | Plant response rating, Velvetleaf (velvetleaf; [2]) | Plant response rating, Velvetleaf (velvetleaf; [3]) | Plant response rating, Velvetleaf (velvetleaf; [4]) | Plant response rating, Velvetleaf (velvetleaf; [5]) | Plant response rating, Morningglory (morningglory; [2]) | Plant response rating, Morningglory (morningglory; [3]) | Plant response rating, Morningglory (morningglory; [4]) | Plant response rating, Morningglory (morningglory; [5]) | Plant response rating, Nightshade (nightshade; [2]) | Plant response rating, Nightshade (nightshade; [3]) | Plant response rating, Nightshade (nightshade; [4]) | Plant response rating, Nightshade (nightshade; [5]) | Plant response rating, Yellow Nutsedge (yellow nutsedge; [2]) | Plant response rating, Yellow Nutsedge (yellow nutsedge; [3]) | Plant response rating, Yellow Nutsedge (yellow nutsedge; [4]) | Plant response rating, Yellow Nutsedge (yellow nutsedge; [5]) | Plant response rating, Velvetleaf (velvetleaf; [6]) | Plant response rating, Morningglory (morningglory; [7]) | Plant response rating, Nightshade (nightshade; [7]) | also measured
1 | CCOc1cc(C(=O)NCC(F)(F)F)nn1Cc1ccnc(C(F)(F)F)c1 [Compound 104] | 50 | 95 | 100 | 0 | 0 | 80 | 100 | 0 | 0 | 100 | 100 | 0 | 65 | 60 | 75 | 0 | 0 | – | – | – | Plant response rating, Morningglory (morningglory; [1]): 70; Plant response rating, Nightshade (nightshade; [1]): 100; Plant response rating, Yellow Nutsedge (yellow nutsedge; [1]): 25
2 | CCNC(=O)c1cc(CCCl)n(Cc2ccnc(C(F)(F)F)c2)n1 [Compound 179] | 0 | 20 | 40 | 0 | – | 60 | 70 | 0 | – | 85 | 100 | 0 | – | 10 | 60 | 0 | – | – | – | – | Plant response rating, Morningglory (morningglory; [1]): 40; Plant response rating, Nightshade (nightshade; [1]): 65; Plant response rating, Yellow Nutsedge (yellow nutsedge; [1]): 0
3 | CCNC(=O)c1cc(CC)n(Cc2ccnc(C(F)(F)F)c2)n1 [Compound 196] | – | 20 | 35 | 0 | 0 | 70 | 80 | 5 | 10 | 75 | 95 | 0 | 35 | 20 | 50 | 0 | 0 | 0 | 35 | 50 | –
4 | Cc1cc(C(=O)NC(C)C)nn1Cc1ccnc(C(F)(F)F)c1 [Compound 197] | – | 15 | 25 | 0 | 0 | 30 | 60 | 0 | 10 | 30 | 70 | 0 | 10 | 5 | 25 | 0 | 0 | 0 | 20 | 20 | –
5 | CCc1cc(C(=O)NC2CC2)nn1Cc1ccnc(OCC(F)(F)F)c1 [Compound 200] | – | 20 | 80 | – | 0 | 10 | 60 | – | 0 | 20 | 75 | – | – | 0 | 25 | – | 0 | 0 | 0 | 0 | Plant response rating, Velvetleaf (velvetleaf; [8]): 85; Plant response rating, Morningglory (morningglory; [8]): 75; Plant response rating, Nightshade (nightshade; [8]): 98; Plant response rating, Yellow Nutsedge (yellow nutsedge; [8]): 35
